Measured values: PubChem BioAssay (NCI)
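Each compound was tested at five concentrations against cells in 96-well plates for 48 hours. GI50 marks 50% less growth. TGI marks complete inhibition of growth.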

Experiments:
Assay in all cases: growth of human tumour cells (NCI), 48 h; in the data active = GI50 below about 0.43 µM; inactive = the rest
TK-10 renal = test system: TK-10 renal
786-0 renal = test system: 786-0 renal
OVCAR-4 ovarian = test system: OVCAR-4 ovarian
HT29 colon = test system: HT29 colon
EKVX NSCLC = test system: EKVX NSCLC
M14 melanoma = test system: M14 melanoma
MCF7 breast = test system: MCF7 breast
SK-MEL-28 melanoma = test system: SK-MEL-28 melanoma
MDA-MB-435 = test system: MDA-MB-435
NCI-H460 lung = test system: NCI-H460 lung
SR leukemia = test system: SR leukemia
IGROV1 ovarian = test system: IGROV1 ovarian
UACC-62 melanoma = test system: UACC-62 melanoma
SW-620 colon = test system: SW-620 colon
KM12 colon = test system: KM12 colon
MDA-MB-231 breast = test system: MDA-MB-231 breast
ACHN renal = test system: ACHN renal
NCI/ADR-RES ovarian = test system: NCI/ADR-RES ovarian
MOLT-4 leukemia = test system: MOLT-4 leukemia
HS 578T breast = test system: HS 578T breast
PC-3 prostate = test system: PC-3 prostate
SF-268 CNS = test system: SF-268 CNS
U251 CNS = test system: U251 CNS
SF-539 CNS = test system: SF-539 CNS
SNB-19 CNS = test system: SNB-19 CNS
RXF 393 renal = test system: RXF 393 renal
RPMI-8226 leukemia = test system: RPMI-8226 leukemia
NCI-H226 lung = test system: NCI-H226 lung
CCRF-CEM leukemia = test system: CCRF-CEM leukemia
CAKI-1 renal = test system: CAKI-1 renal
HOP-62 NSCLC = test system: HOP-62 NSCLC
SF-295 CNS = test system: SF-295 CNS
OVCAR-8 ovarian = test system: OVCAR-8 ovarian
UACC-257 melanoma = test system: UACC-257 melanoma
HCT-15 colon = test system: HCT-15 colon
A498 renal = test system: A498 renal
NCI-H23 lung = test system: NCI-H23 lung
HCT-116 colon = test system: HCT-116 colon
SNB-75 CNS = test system: SNB-75 CNS
SK-MEL-5 melanoma = test system: SK-MEL-5 melanoma
COLO 205 colon = test system: COLO 205 colon
HL-60(TB) leukemia = test system: HL-60(TB) leukemia
NCI-H522 lung = test system: NCI-H522 lung
OVCAR-5 ovarian = test system: OVCAR-5 ovarian
MALME-3M melanoma = test system: MALME-3M melanoma
UO-31 renal = test system: UO-31 renal
DU-145 prostate = test system: DU-145 prostate
HCC-2998 colon = test system: HCC-2998 colon
K-562 leukemia = test system: K-562 leukemia
SN12C renal = test system: SN12C renal
BT-549 breast = test system: BT-549 breast
A549 NSCLC = test system: A549 NSCLC
LOX IMVI melanoma = test system: LOX IMVI melanoma
T-47D breast = test system: T-47D breast
OVCAR-3 ovarian = test system: OVCAR-3 ovarian
SK-MEL-2 melanoma = test system: SK-MEL-2 melanoma
SK-OV-3 ovarian = test system: SK-OV-3 ovarian

OCC1OC(n2cnc3c(N/N=C\c4ccccn4)ncnc32)C(O)C1O (configuration not stated)
> 25.3 µM: TGI (RPMI-8226 leukemia)
> 51.4 µM: TGI (HS 578T breast)
> 33.6 µM: TGI (PC-3 prostate)
23 µM: TGI (BT-549 breast)
2970 nM: TGI (SK-OV-3 ovarian)
16.5 µM: TGI (SF-295 CNS)
10.1 µM: TGI (DU-145 prostate)
inactive: GI50 (EKVX NSCLC) 490 nM | GI50 (SK-MEL-28 melanoma) 995 nM | GI50 (MDA-MB-435) 430 nM | GI50 (UACC-62 melanoma) 866 nM | GI50 (KM12 colon) 434 nM | GI50 (HS 578T breast) 1780 nM | GI50 (RPMI-8226 leukemia) 736 nM | GI50 (NCI-H226 lung) 525 nM | GI50 (SF-295 CNS) 936 nM | GI50 (UACC-257 melanoma) 1240 nM | GI50 (A498 renal) 762 nM | GI50 (NCI-H23 lung) 476 nM | GI50 (SNB-75 CNS) 613 nM | GI50 (COLO 205 colon) 622 nM | GI50 (OVCAR-5 ovarian) 467 nM | GI50 (SK-MEL-2 melanoma) 611 nM
6.19 µM: TGI (MALME-3M melanoma)
809 nM: TGI (CAKI-1 renal)
8.68 µM: TGI (UACC-257 melanoma)
1780 nM: TGI (ACHN renal)
> 57.3 µM: TGI (MDA-MB-231 breast)
8.98 µM: TGI (IGROV1 ovarian)
1010 nM: TGI (786-0 renal)
7.48 µM: TGI (SN12C renal)
10.8 µM: TGI (HCT-116 colon)
2290 nM: TGI (SK-MEL-5 melanoma)
4.05 µM: TGI (UACC-62 melanoma)
1440 nM: TGI (UO-31 renal)
11.7 µM: TGI (NCI/ADR-RES ovarian)
3.89 µM: TGI (M14 melanoma)
21 µM: TGI (T-47D breast)
> 100 µM: TGI (TK-10 renal) | TGI (HT29 colon) | TGI (MCF7 breast) | TGI (SK-MEL-28 melanoma) | TGI (MDA-MB-435) | TGI (SW-620 colon) | TGI (KM12 colon) | TGI (MOLT-4 leukemia) | TGI (U251 CNS) | TGI (SNB-19 CNS) | TGI (NCI-H226 lung) | TGI (CCRF-CEM leukemia) | TGI (HCT-15 colon) | TGI (A498 renal) | TGI (NCI-H23 lung) | TGI (COLO 205 colon) | TGI (NCI-H522 lung) | TGI (OVCAR-5 ovarian) | TGI (HCC-2998 colon) | TGI (K-562 leukemia) | TGI (A549 NSCLC) | TGI (SK-MEL-2 melanoma)
97 µM: TGI (EKVX NSCLC)
> 87.7 µM: TGI (SR leukemia)
4.53 µM: TGI (NCI-H460 lung)
2450 nM: TGI (RXF 393 renal)
active: GI50 (TK-10 renal) 159 nM | GI50 (786-0 renal) 256 nM | GI50 (OVCAR-4 ovarian) 115 nM | GI50 (HT29 colon) 417 nM | GI50 (M14 melanoma) 426 nM | GI50 (MCF7 breast) 122 nM | GI50 (NCI-H460 lung) 384 nM | GI50 (SR leukemia) 38.7 nM | GI50 (IGROV1 ovarian) 410 nM | GI50 (SW-620 colon) 422 nM | GI50 (MDA-MB-231 breast) 78.1 nM | GI50 (ACHN renal) 200 nM | GI50 (NCI/ADR-RES ovarian) 185 nM | GI50 (MOLT-4 leukemia) 53.2 nM | GI50 (PC-3 prostate) 361 nM | GI50 (SF-268 CNS) 167 nM | GI50 (U251 CNS) 400 nM | GI50 (SF-539 CNS) 318 nM | GI50 (SNB-19 CNS) 364 nM | GI50 (RXF 393 renal) 275 nM | GI50 (CCRF-CEM leukemia) 33.8 nM | GI50 (CAKI-1 renal) 202 nM | GI50 (HOP-62 NSCLC) 289 nM | GI50 (OVCAR-8 ovarian) 164 nM | GI50 (HCT-15 colon) 129 nM | GI50 (HCT-116 colon) 110 nM | GI50 (SK-MEL-5 melanoma) 398 nM | GI50 (HL-60(TB) leukemia) 24.7 nM | GI50 (NCI-H522 lung) 182 nM | GI50 (MALME-3M melanoma) 404 nM | GI50 (UO-31 renal) 235 nM | GI50 (DU-145 prostate) 38.9 nM | GI50 (HCC-2998 colon) 277 nM | GI50 (K-562 leukemia) 368 nM | GI50 (SN12C renal) 107 nM | GI50 (BT-549 breast) 256 nM | GI50 (A549 NSCLC) 399 nM | GI50 (LOX IMVI melanoma) 97.1 nM | GI50 (T-47D breast) 282 nM | GI50 (OVCAR-3 ovarian) 319 nM | GI50 (SK-OV-3 ovarian) 239 nM
204 nM: TGI (HL-60(TB) leukemia)
3.04 µM: TGI (OVCAR-3 ovarian)
2140 nM: TGI (HOP-62 NSCLC)
2270 nM: TGI (SF-539 CNS)
1000 nM: TGI (SF-268 CNS)
12.9 µM: TGI (SNB-75 CNS)
53.7 µM: TGI (OVCAR-8 ovarian)
